Data taken from PubChem BioAssay (NCI).
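Each compound was tested at five concentrations against cells in 96-well plates for 48 hours. TGI: total growth inhibition.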

Key:
Experiment in all cases: NCI tumour cell line growth inhibition, 48 h
[1] = system: BT-549 breast
[2] = system: OVCAR-3 ovarian
[3] = system: SNB-19 CNS
[4] = system: IGROV1 ovarian
[5] = system: HL-60(TB) leukemia
[6] = system: OVCAR-4 ovarian
[7] = system: TK-10 renal
[8] = system: 786-0 renal
[9] = system: CAKI-1 renal
[10] = system: HOP-62 NSCLC
[11] = system: A549 NSCLC
[12] = system: NCI-H460 lung
[13] = system: HOP-92 NSCLC
[14] = system: MCF7 breast
[15] = system: U251 CNS
[16] = system: PC-3 prostate
[17] = system: HCT-116 colon
[18] = system: RXF 393 renal
[19] = system: SK-MEL-28 melanoma
[20] = system: MDA-MB-231 breast
[21] = system: K-562 leukemia
[22] = system: SK-OV-3 ovarian
[23] = system: SW-620 colon
[24] = system: UO-31 renal
[25] = system: NCI-H226 lung
[26] = system: SF-295 CNS
[27] = system: SR leukemia
[28] = system: DU-145 prostate
[29] = system: MOLT-4 leukemia
[30] = system: HT29 colon
[31] = system: EKVX NSCLC
[32] = system: SF-539 CNS
[33] = system: CCRF-CEM leukemia
[34] = system: UACC-257 melanoma
[35] = system: SNB-75 CNS
[36] = system: NCI-H23 lung
[37] = system: RPMI-8226 leukemia
[38] = system: A498 renal
[39] = system: NCI-H522 lung
[40] = system: SK-MEL-5 melanoma
[41] = system: LOX IMVI melanoma
[42] = system: MDA-MB-435
[43] = system: UACC-62 melanoma
[44] = system: SK-MEL-2 melanoma
[45] = system: KM12 colon
[46] = system: HS 578T breast
[47] = system: SF-268 CNS
[48] = system: OVCAR-5 ovarian
[49] = system: COLO 205 colon
[50] = system: T-47D breast
[51] = system: SN12C renal
[52] = system: MALME-3M melanoma
[53] = system: M14 melanoma
[54] = system: NCI/ADR-RES ovarian
[55] = system: HCC-2998 colon
[56] = system: ACHN renal
[57] = system: MDA-N
[58] = system: OVCAR-8 ovarian
[59] = system: HCT-15 colon

COc1oc(C2C/C(=C/C(C)=C/C(C)=C/C(C)=C/c3ccc([N+](=O)[O-])cc3)CO2)c(C)c(=O)c1C (stereo not given)
TGI [1]: 17.4 µM | TGI [2]: 54.9 µM | TGI [3]: 73.7 µM | TGI [4]: 42.5 µM | TGI [5]: 8.13 µM | TGI [6]: > 42.2 µM | TGI [7]: > 45.6 µM | TGI [8]: 21.6 µM | TGI [9]: 30.9 µM | TGI [10]: > 100 µM | TGI [11]: 68.3 µM | TGI [12]: 15.8 µM | TGI [13]: 40 µM | TGI [14]: 19 µM | TGI [15]: 31.5 µM | TGI [16]: 18.4 µM | TGI [17]: 18.2 µM | TGI [18]: 95.1 µM | TGI [19]: > 60.5 µM | TGI [20]: 38.9 µM | TGI [21]: 21.3 µM | TGI [22]: > 63.5 µM | TGI [23]: > 100 µM | TGI [24]: 27.5 µM | TGI [25]: > 54.3 µM | TGI [26]: 34.7 µM | TGI [27]: 3 µM | TGI [28]: > 47.3 µM | TGI [29]: 10.2 µM | TGI [30]: > 50 µM | TGI [31]: 82.6 µM | TGI [32]: 33.4 µM | TGI [33]: 23.5 µM | TGI [34]: 66 µM | TGI [35]: > 57.5 µM | TGI [36]: 31.4 µM | TGI [37]: 20.9 µM | TGI [38]: 47.4 µM | TGI [39]: 15.5 µM | TGI [40]: 3.61 µM | TGI [41]: 23.4 µM | TGI [42]: 42.4 µM | TGI [43]: > 54.8 µM | TGI [44]: > 75.8 µM | TGI [45]: > 48.2 µM | TGI [46]: > 31.6 µM | TGI [47]: 42.6 µM | TGI [48]: > 100 µM | TGI [49]: 24.6 µM | TGI [50]: 6.81 µM | TGI [51]: 27 µM | TGI [52]: 16.2 µM | TGI [53]: > 100 µM | TGI [54]: > 49.6 µM | TGI [55]: > 100 µM | TGI [56]: 6.58 µM | TGI [57]: 23.9 µM | TGI [58]: 32.5 µM | TGI [59]: > 56.6 µM

Cc1csc(NCc2ccc(Cl)cc2)n1
TGI [1]: > 100 µM | TGI [2]: > 100 µM | TGI [3]: > 100 µM | TGI [4]: > 100 µM | TGI [5]: > 100 µM | TGI [6]: > 100 µM | TGI [7]: > 100 µM | TGI [8]: > 100 µM | TGI [9]: > 100 µM | TGI [10]: > 100 µM | TGI [11]: > 100 µM | TGI [13]: 89.9 µM | TGI [14]: > 100 µM | TGI [15]: > 100 µM | TGI [16]: > 100 µM | TGI [17]: > 100 µM | TGI [18]: 79 µM | TGI [19]: > 100 µM | TGI [20]: > 100 µM | TGI [21]: > 100 µM | TGI [22]: > 100 µM | TGI [23]: > 100 µM | TGI [24]: > 100 µM | TGI [25]: > 100 µM | TGI [26]: > 100 µM | TGI [27]: > 100 µM | TGI [28]: > 100 µM | TGI [29]: > 100 µM | TGI [30]: > 100 µM | TGI [31]: > 100 µM | TGI [32]: > 100 µM | TGI [33]: > 100 µM | TGI [34]: > 100 µM | TGI [35]: > 100 µM | TGI [36]: > 100 µM | TGI [37]: > 100 µM | TGI [38]: > 100 µM | TGI [39]: > 100 µM | TGI [40]: 59.4 µM | TGI [41]: > 100 µM | TGI [42]: > 100 µM | TGI [44]: > 100 µM | TGI [45]: > 100 µM | TGI [46]: > 100 µM | TGI [47]: > 100 µM | TGI [48]: > 100 µM | TGI [49]: 63.1 µM | TGI [50]: > 100 µM | TGI [51]: > 100 µM | TGI [52]: > 100 µM | TGI [53]: > 100 µM | TGI [54]: > 100 µM | TGI [56]: > 100 µM | TGI [57]: > 100 µM | TGI [58]: > 100 µM | TGI [59]: > 100 µM
